Experimental data as given in patent publication US10316371B2, “Screening methods for identifying specific Staphylococcus aureus inhibitors” (TRANA DISCOVERY, INC., priority 2011, dated 2019).
Converted amounts (≈) assume the structure as drawn. Like-named read-outs stand apart in the source and are kept apart here.

Assays:
Type in all cases: cell-based
[1] = tested on: non-S. aureus bacterial strains (Staph epi, E. faecium, E. faecalis, S. pneumoniae); experiment: Re-test against other bacteria; conditions: Gm (+) organisms (e.g. Staph epi, E. faecium and E. faecalis)
From the text: The compounds were re-tested against other bacteria, including Staphylococcus epidermidis (ATCC 35984), Staphylococcus epidermidis (MRSE), E. faecium 134529, E. faecium 145494, […], E. faecium 161651, S. pneumoniae 49619, and S. pneumoniae 149389.
In some cases, the compounds were as active, or nearly so, against the non-S. aureus bacterial strains. While not wishing to be bound to a particular theory, it is believed that these compounds function by stabilizing or inhibiting the complex between the mRNA Shine-Dalgarno sequence, and the anti-Shine Delgarno sequence in the ribosome, and inhibit protein translation in this manner, rather than by inhibiting the ASL Arg, and the codon encoding arginine (AGA), which is specific to S. aureus.

[2] = tested on: S. aureus strain 29213; experiment: Time-kill experiments; conditions: for time-kill activity (cidal / static): 8 hrs; for reduction of bacterial counts / reduction of bacterial counts (killing): by 8 hours
Description: (§1) Two compounds (#880 and #169) were tested in time-kill assays against S. aureus strain 29213. These compounds were then used to attempt to select for resistant variants by passaging at sub-MIC concentrations for 20 passages.
Twenty mL of MH-II media warmed to 37° C. was seeded with log-phase growth S. aureus strain 29213 at 1×10^6 cfu/mL in 50 mL erlenmeyer shake-flasks. Compound was added at 2× and 4× the MIC value. Negative controls (no drug) and positive drug controls (vancomycin at 2× and 4× the MIC) were included in the experiment. Flasks were shaken at 200 rpm and 37° C. Samples were taken at the times indicated (0, 2, 4, 6, 8 and 24 hrs post inoculation) and bacterial loads were quantified by limiting dilution assay.

[3] = tested on: S. aureus ATCC 29213; experiment: Resistance passaging experiment; conditions: Staphylococcus aureus
Description: as §1
The selected strain for this experiment was S. aureus ATCC 29213. A frozen glycerol stock was streaked onto MH-II agar and grown overnight at 37° C. The next day, 3-5 colonies were picked and grown in 3 mL of MH-II broth at 37° C. with 200 rpm shaking for approximately 4 hours. A 2-fold microdilution (in round-bottom, 96-well plates) was made for each compound being tested. CLSI guidelines for broth microdilution were followed. Using the bacteria grown from the overnight colonies, each microdilution was inoculated at a final concentration of 5×10^5 colony forming units (CFU)/mL. The microdilutions were incubated at 37° C. for 16 to 20 hours, after which the minimal inhibitory concentration (MIC) of each was read visually. The MIC is defined as the lowest concentration of compound resulting in no visible bacterial growth. This activity is recorded as the MIC at Passage 0. The contents of the well in the next dilution lower in concentration than the MIC (i.e., ½ the MIC) was mixed with a micropipette and 50 μL was transferred to 3 mL of fresh MH-II broth. This was grown at 37° C. with 200 rpm shaking for approximately 4 hours, at which time the sample was turbid. A 1 mL aliquot of this sample was added to a cryovial containing 300 μL of glycerol. This was marked as passage 1, vortexed, than placed in a −80° C. freezer for storage. The rest of the culture was adjusted to a bacterial concentration of 1×10^6cfu/mL (OD600 of 0.004), which was then used to inoculate a microdilution of the same compound (final bacterial concentration of 5×10^5 cfu/mL). This was incubated at 37° C. for 16 to 20 hours. After that time the MIC was once again read and recorded as the MIC at Passage 1. This process was repeated through 20 passages. Ciprofloxacin was included as a control and an untreated sample was also passaged 20 times as a negative control.

[4] = tested on: K. pneumoniae 700603; experiment: MIC; conditions: Klebsiella pneumoniae; K. pneumoniae 700603; read-out: MIC
[5] = Mammalian Cell Toxicity; conditions: human, MRC5 cells
[6] = tested on: E. coli ESBL 4; experiment: MIC; conditions: Escherichia coli, ESBL4; E. coli ESBL 4; read-out: MIC
[7] = tested on: E. coli 25922; experiment: MIC; conditions: Escherichia coli; E. coli 25922; read-out: MIC
[8] = ATCC29213, read-out: MIC in S. aureus 29213, Passage 14, passaged at sub-MIC
[9] = ATCC29213, read-out: MIC in S. aureus 29213, Passage 15, passaged at sub-MIC
[10] = ATCC29213, read-out: MIC in S. aureus 29213, Passage 16, passaged at sub-MIC
[11] = ATCC29213, read-out: MIC in S. aureus 29213, Passage 17, passaged at sub-MIC
[12] = ATCC29213, read-out: MIC in S. aureus 29213, Passage 18, passaged at sub-MIC
[13] = ATCC29213, read-out: MIC in S. aureus 29213, Passage 19, passaged at sub-MIC
[14] = ATCC29213, read-out: MIC in S. aureus 29213, Passage 20, passaged at sub-MIC
[15] = ATCC29213, read-out: MIC in S. aureus 29213, second Passage 20 line of Table 4 (untreated culture passaged 20 times)

Compound | spectrum of activity [1] | reduction of bacterial counts ([2]; 2× the MIC) | time-kill activity (cidal / static) ([2]; 4× the MIC) | reduction of bacterial counts (killing) ([2]; 4× the MIC) | MIC [3, 8] | MIC [3, 9] | MIC [3, 10] | MIC [3, 11] | MIC [3, 12] | MIC [3, 13] | MIC [3, 14] | MIC [3, 15] | MIC [4] | CC50 [5] | MIC [6] | MIC [7] | also measured
Cc1ccc2nc(-c3ccc(NC(=O)CN4CCN(CCO)CC4)cc3)sc2c1 [Compound #169, 2-[4-(2-hydroxyethyl)-1-piperazinyl]-N-[4-(6-methyl-1,3-benzothiazol-2-yl)phenyl]acetamide] | broad spectrum for Gm (+) organisms | 1 log10 | static activity | 1 log10 | 32 mg/L (≈ 77.9 µM) | 32 mg/L (≈ 77.9 µM) | 32 mg/L (≈ 77.9 µM) | 32 mg/L (≈ 77.9 µM) | 32 mg/L (≈ 77.9 µM) | 32 mg/L (≈ 77.9 µM) | 32 mg/L (≈ 77.9 µM) | 32 mg/L (≈ 77.9 µM) | > 128 mg/L | < 2 mg/L | > 128 mg/L | > 128 mg/L | time-kill activity (cidal / static) ([2]; 2× the MIC): static activity; time-kill result by 24 hrs post treatment ([2]; 2× the MIC, 24 hrs): regrowth of bacteria; MIC ([3]; ATCC29213, read-out: MIC in S. aureus 29213, Passage 4, passaged at sub-MIC): 32 mg/L (≈ 77.9 µM)
Brc1ccc(-c2nc(N3CCNCC3)c3ccccc3n2)cc1 [Compound #880, 2-(4-bromophenyl)-4-(1-piperazinyl)-quinazoline] | broad spectrum for Gm (+) organisms | 2.5 log10 | rapidly cidal | > 3 log10 | 16 mg/L (≈ 43.3 µM) | 16 mg/L (≈ 43.3 µM) | 16 mg/L (≈ 43.3 µM) | 16 mg/L (≈ 43.3 µM) | 16 mg/L (≈ 43.3 µM) | 32 mg/L (≈ 86.7 µM) | 32 mg/L (≈ 86.7 µM) | 16 mg/L (≈ 43.3 µM) | > 128 mg/L | 2.18 mg/L (≈ 5.9 µM) | 64 mg/L (≈ 173 µM) | 64 mg/L (≈ 173 µM) | bacterial counts by 24 hrs post treatment ([2]; 4× the MIC, 24 hrs): below detectable levels; MIC ([3]; ATCC29213, read-out: MIC in S. aureus 29213, Passage 8, passaged at sub-MIC): 16 mg/L (≈ 43.3 µM); MIC ([3]; ATCC29213, read-out: MIC in S. aureus 29213, Passage 10, passaged at sub-MIC): 16 mg/L (≈ 43.3 µM); MIC ([3]; ATCC29213, read-out: MIC in S. aureus 29213, Passage 11, passaged at sub-MIC): 16 mg/L (≈ 43.3 µM); MIC ([3]; ATCC29213, read-out: MIC in S. aureus 29213, Passage 12, passaged at sub-MIC): 16 mg/L (≈ 43.3 µM); MIC ([3]; ATCC29213, read-out: MIC in S. aureus 29213, Passage 13, passaged at sub-MIC): 16 mg/L (≈ 43.3 µM)
